Measurements from ChEMBL document CHEMBL1152598, “Synthesis and dopaminergic activity of some E-3-(piperidin-1-yl)-1-(4-substituted phenyl)prop-2-en-1-one derivatives” (2009).
Active and inactive are the calls of the source. The rule behind the calls is not given here.

These compounds were tested on Rattus norvegicus (assay: Dopaminergic activity in apomorphine-induced Wistar rat assessed as licking count at 0.5 mg/kg, iv treated 15 mins before apomorphine challenge measured after 10 mins for 60 mins by behavioral study). Settings: not given.
Format: functional

Compound `O=C(CCCN1CCC(O)(c2ccc(Cl)cc2)CC1)c1ccc(F)cc1` [HALOPERIDOL] has an Activity of 3.667.

These compounds were tested on Rattus norvegicus (assay: Effect on dopaminergic activity in apomorphine-induced Wistar rat assessed as licking count at 10 to 30 mg/kg, ip treated 15 mins before apomorphine challenge measured after 10 mins for 60 mins by behavioral study). Settings: not given.

`O=C(/C=C/N1CCC(O)(c2ccc(Cl)cc2)CC1)c1ccc(O)cc1O` was tested, and the Activity was “Active”.

What follows are compounds tested on Rattus norvegicus (assay: Dopaminergic activity in apomorphine-induced Wistar rat assessed as licking count at 30 mg/kg, ip treated 15 mins before apomorphine challenge measured after 10 mins for 60 mins by behavioral study). Settings: route intraperitoneal.

Going from `COc1ccc(C(=O)/C=C/N2CCC(O)(c3ccc(O)cc3)CC2)c(O)c1` to `COc1ccc(C(=O)/C=C/N2CCC(O)(c3ccc(Br)cc3)CC2)c(O)c1`, the Activity falls from 2675 to 1140.

First: O=C(/C=C/N1CCC(O)(c2ccc(Br)cc2)CC1)c1ccc(O)cc1O
Second: O=C(/C=C/N1CCC(O)(c2ccc(O)cc2)CC1)c1ccc(O)cc1O
The Activity of the first is higher: 1860 for the first, 1450 for the second.

First: COc1ccc(C(=O)/C=C/N2CCC(Cc3ccccc3)CC2)c(O)c1
Second: O=C(/C=C/N1CCC(Cc2ccccc2)CC1)c1ccc(O)cc1O
The Activity of the first is lower: 520 for the first, 618 for the second.

First: COc1ccc(C(=O)/C=C/N2CCC(O)(c3ccccc3)CC2)c(O)c1
Second: O=C(/C=C/N1CCC(O)(c2ccccc2)CC1)c1ccc(O)cc1O
The Activity of the first is higher: 1800 for the first, 1317 for the second.

Going from `COc1ccc(C(=O)/C=C/N2CCC(c3ccc(O)cc3)CC2)c(O)c1` to `O=C(/C=C/N1CCC(c2ccc(O)cc2)CC1)c1ccc(O)cc1O`, the Activity falls from 1325 to 664.

First: COc1ccc(C(=O)/C=C/N2CCC(O)(c3ccc(Cl)cc3)CC2)c(O)c1
Second: O=C(/C=C/N1CCC(O)(c2ccc(Cl)cc2)CC1)c1ccc(O)cc1O
The Activity of the first is higher: 1575 for the first, 115 for the second.
